In article PMC7464911, “Isolation of Antidiabetic Withanolides from Withania coagulans Dunal and Their In Vitro and In Silico Validation” (Biology, 2020):
Entries after “also recorded” stand apart in the source; their conditions may differ. Where two headings read alike, the source gives them in different places.

Columns and labels:
[1] = test system: Sprague-Dawley normoglycemic rat model; design: method as in PMID 24566854; details: cited from earlier work
[2] = test system: AGE formation (bovine serum albumin, methylglyoxal); experiment: In vitro antiglycation assay (BSA-methylglyoxal, AGE fluorescence); format: biochemical
Protocol: Methylglyoxal (14 mM), sodium azide (30 mM) in 0.1 M phosphate buffer, bovine serum albumin (10 mg/mL), and various concentrations of the compounds (prepared in 10% DMSO) were incubated under sterile conditions at 37 °C for 9 days. […] Standard rutin was used as a positive control and percent inhibition of AGE formation in the test sample versus control was calculated by using the following relation: % Inhibition = ⦋1−Fluorescence of test sample/Fluorescence of the control⦌×100

α-glucosidase [3] = target: T1, α-glucosidase (Saccharomyces cerevisiae, UniProt P53341); details: for α-Glucosidase Inhibition IC50 (µM) ± (SEM): pH 6.8, 37 °C, PNP-G 0.7 mM, mean ± SEM, triplicate
Protocol: (§1) α-Glucosidase inhibitory potential of test compounds was assayed by using 0.1 M phosphate buffer (pH 6.8) at 37 °C. The enzyme (0.2 U/mL) in phosphate buffer was incubated with selected concentrations of test compounds at 37 °C for 15 min. The substrate, p-nitrophenyl-α-D-glucopyranoside (PNP-G) (0.7 mM) was added in each well of 96-well plate and change in absorbance was monitored at 400 nm for 30 min. […] The increase in absorption due to the hydrolysis of PNP-G by α-glucosidase was recorded continuously with the spectrophotometer (Spectra Max, MD, USA.) and percent inhibition was calculated by using the following formula: % Inhibition = 100−⦋OD of test sample/OD of the control×100⦌
(§2) The experiments were performed by using 96-well microplate reader (SpectraMax M2, Molecular Devices, CA, USA) and the results were analyzed by SoftMaxPro 4.8 and MS-Excel. The experiments were repeated in triplicate, and results were presented as means ± SEM. IC50 values were determined by using EZ-FIT, Enzyme kinetics software by Perrella Scientific, Inc., Amherst, MA, USA.

α-glucosidase [4] = target: T1, α-glucosidase; experiment: biochemical
Protocol: as §1, §2

T1 sequence (P53341 whole entry): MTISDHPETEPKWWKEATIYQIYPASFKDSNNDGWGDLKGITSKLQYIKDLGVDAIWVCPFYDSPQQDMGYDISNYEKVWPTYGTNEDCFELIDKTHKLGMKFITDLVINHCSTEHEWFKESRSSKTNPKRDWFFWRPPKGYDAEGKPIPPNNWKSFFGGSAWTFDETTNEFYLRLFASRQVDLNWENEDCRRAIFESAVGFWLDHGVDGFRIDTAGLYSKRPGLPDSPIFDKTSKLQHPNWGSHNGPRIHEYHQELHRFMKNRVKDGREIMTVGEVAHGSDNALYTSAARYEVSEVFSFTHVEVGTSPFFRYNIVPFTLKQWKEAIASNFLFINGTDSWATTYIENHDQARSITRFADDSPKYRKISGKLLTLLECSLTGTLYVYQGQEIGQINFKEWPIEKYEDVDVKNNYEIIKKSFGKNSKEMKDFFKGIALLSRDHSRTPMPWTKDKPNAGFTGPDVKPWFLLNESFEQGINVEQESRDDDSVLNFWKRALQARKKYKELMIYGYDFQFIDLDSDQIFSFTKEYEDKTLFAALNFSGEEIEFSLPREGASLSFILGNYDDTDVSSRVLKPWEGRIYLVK

Compound | α-glucosidase inhibitory activity (in words) (α-glucosidase [3]) | α-Glucosidase Inhibition IC50 (µM) ± (SEM) (α-glucosidase [3]) | IC50 (α-glucosidase [4]) [µM] | Antiglycation IC50 (µM) ± (SEM) ([2]; 37 °C, 9 days, mean ± SEM) | further results
17β-hydroxywithanolide K |  |  |  |  | anti-inflammatory activity [1]: potent; antihyperglycemic activity [1]: potent
CC1=C(C)C(=O)O[C@@H]([C@](C)(O)[C@]2(O)CC[C@@]3(O)[C@@H]4C[C@H]5O[C@]56[C@@H](O)C=CC(=O)[C@]6(C)[C@H]4CC[C@]23C)C1 [4β-hydroxywithanolide E] |  |  |  |  | anti-inflammatory activity [1]: potent; antihyperglycemic activity [1]: potent
CC1=C(COC2OC(CO)C(O)C(O)C2O)C(=O)OC(C2(C)OC34CCC2C3(C)CCC2C4CC=C3CC(O)CC(=O)C32C)C1 (stereo not drawn) [Compound 1, 3β-Hydroxy-14R,20R-epoxy-1-oxowitha-5,24-dienolide-27-O-β-D glucopyranoside] | did not possess α-glucosidase inhibitory activity; also recorded: inactive | Inactive |  |  | Antiglycation IC50 (µM) ± (SEM) [2]: Inactive
CC1=C(C)C(=O)O[C@@H]([C@@](C)(O)[C@@]2(O)CC[C@@]3(O)[C@@H]4CC=C5CC=CC(=O)[C@]5(C)[C@H]4CC[C@]23C)C1 [Compound 2, withanolid J] |  |  | 683 ± 0.94 | Inactive | 
CC1=C(C)C(=O)O[C@@H]([C@@]2(C)O[C@@]34CC[C@@H]2[C@@]3(C)CC[C@H]2[C@H]4CC=C3C=CCC(=O)[C@@]32C)C1 [Compound 3, coagulin E] | did not possess α-glucosidase inhibitory activity | Inactive |  | Inactive | 
CC1=C(C)C(=O)O[C@@H]([C@@](C)(O)[C@@]2(O)CC[C@@]3(O)[C@@H]4CCC5=CC=CC(=O)[C@]5(C)[C@H]4CC[C@]23C)C1 [Compound 4, withaperuvin C] |  |  | 407 ± 4.5 | Inactive | 
CC1=C(CO)C(=O)O[C@@H]([C@@](C)(O)[C@H]2CC[C@@]3(O)[C@@H]4CC=C5C=CCC(=O)[C@]5(C)[C@H]4CC[C@]23C)C1 [Compound 5, 27-hydroxywithanolide I] |  |  | 66.7 ± 3.6 | Inactive | 
CC1=C(CO)C(=O)O[C@@H]([C@@](C)(O)[C@@]2(O)CC[C@@]3(O)[C@@H]4CC=C5C=CCC(=O)[C@]5(C)[C@H]4CC[C@]23C)C1 [Compound 6, ajugin E] | did not possess α-glucosidase inhibitory activity | Inactive |  |  | Antiglycation IC50 (µM) ± (SEM) [2]: Inactive
C[C@@H]1O[C@@H](OC[C@H]2O[C@@H](Oc3c(-c4ccc(O)c(O)c4)oc4cc(O)cc(O)c4c3=O)[C@H](O)[C@@H](O)[C@@H]2O)[C@H](O)[C@H](O)[C@H]1O [Rutin, rutin, reference compound] |  |  |  |  | IC50 ([2]; 37 °C, 9 days, mean ± SEM): 288.9 ± 1.84 µM
